Consider 1 compound from patent US20080004266A1, “Method for treating proliferative disorders associated with protooncogene products” (priority 2006, published 2008).

Molecules are shown by their SMILES. Several values for one entry are separate records, joined by “and”; a condition that tells them apart may be missing. Equal values may be shown once.

Data set [1] relates to EGFR (T790M and L858R mutations). As to the kind of experiment: Degradation of EGFR in NCI-H1975 cells (Western blot). Type of data set: cell-based, human. As to conditions: 18 hours, 1.0 μM, 0.5 μM and 0.1 μM. As for the experimental part: Non-small cell lung cancer cell line, NCI-H1975 (2×10^6 cells), which harbors both the T790M and the L858R mutations in EGFR and is resistant to erlotinib, was obtained from American Type Culture Collection and was treated with either Compound 226 (1.0 μM, 0.5 μM and 0.1 μM) or 17-AAG (1.0 μM, 0.5 μM and 0.1 μM). After 18 hours, the cells were lysed with 1× lysis buffer and a western blot was perform, and phosphorylated and total EGFR was detected with anti-EGFR antibodies.

For a further data set, the system named is V600E mutant B-raf. As to the kind of experiment: Degradation of B-raf in A375 melanoma cells (Western blot). The format is cell-based, human. As to conditions: 18 hours, at 0.5 mM and 0.1 mM (so in the source). On the procedure:
[…] After 18 hours, the cells were lysed with 1× lysis buffer and a western blot was perform, and B-raf was detected with anti-B-raf antibody.
Background: A western blot detects proteins with antibodies after separation by electrophoresis.

The subject of a further data set is MV 4-11 cells (FLT3-ITD). As to the kind of experiment: Cell survival in MV-4-11 cells (Cell Counting Kit-8). Type of data set: cell-based, human. The settings on record: Homo sapiens, MV4-11, 72 hours. As for the experimental part: Human acute myelogenous leukemia (AML) cell line, MV 4-11 (ATCC #CRL-9591), was obtained from the American Type Culture Collection (ATCC; Manassas, Va., USA). Growth of this tumor cell line is dependent upon the expression of an activated form of the FLT3 tyrosine kinase receptor carrying an internal tandem duplication (ITD) mutation, which is the most common molecular defect associated with AML (K. W. Yee et al., Blood 100:2941-2949, 2002). MV 4-11 cells (20,000 cells/well) were cultured in 96-well plates and maintained at 37° C. for several hours. The cells were incubated at 37° C. for 72 hours with various concentrations of compounds of the invention, 17AAG, or DMAG. 17AAG and DMAG are Hsp90 inhibitors that are currently in clinical trials and are used here as positive controls for Hsp90 inhibition. Cell survival was measured with Cell Counting Kit-8 (Dojindo Laboratories, Cat # CK04).

The subject of a further data set is P815 cells (c-Kit D814Y). Put plainly: Cell survival in mouse mastacytoma cell line P815 (Cell Counting Kit-8). Type of data set: cell-based. As to conditions: 72 hours. On the procedure:
Mouse mastacytoma cell line P815 was obtained from the American Type Culture Collection (ATCC; Manassas, Va., USA). […] P815 cells (20,000 cells/well) were cultured in 96-well plates and maintained at 37° C. for several hours. […] 17AAG and 17DMAG are Hsp90 inhibitors that are currently in clinical trials and are used here as positive controls for Hsp90 inhibition. […] Cell survival was measured with Cell Counting Kit-8 (Dojindo Laboratories, Cat # CK04).
In general terms: Formazan colour is commonly taken as a measure of viable cells.

The test system of data set [2] is human malignant melanoma tumor cell line A-375. As to the kind of experiment: A-375 (B-raf V600E) nude mouse xenograft model. The format is in vivo, human (xenograft in nude mouse). The settings on record: 50 mg/kg i.v. 3 times per week. From the text: The human malignant melanoma cell line, A-375 (ATCC #CRL-1619), was obtained from the American Type Culture Collection (ATCC; Manassas, Va., USA). Growth of this tumor cell line is dependent upon the expression of an activated form of the B-RAF serine/threonine kinase carrying a V600E mutation (K. P. Hoeflich et al., Cancer Res. 66:999-1006, 2006; D. J. Panka et al., Cancer Res. 66:1611-1619, 2006). This is the most frequent genetic abnormality observed in melanoma (N. Dhomen and R. Marais, Curr. Opin. Genet. Dev. 17:31-39, 2007). The cells were cultured in growth media prepared with Dulbecco's Modified Eagle Medium (high glucose), 10% fetal bovine serum (FBS), 1% 100× Penicillin-Streptomycin, 1% 10× sodium pyruvate and 1% 10×MEM non-essential amino acids. FBS was obtained from ATCC and all other reagents were obtained from Invitrogen Corp. (Carlsbad, Calif., USA). […] The supernatant was aspirated and the cell pellet was resuspended in 10 mL of growth media and the cell number determined using a hemocytometer. […]
Tumors were then permitted to develop in vivo until the majority reached 90-160 mm^3 in tumor volume, which required 5-6 weeks following implantation. […] Tumor volumes (V) were calculated by caliper measurement of the width (W), length (L) and thickness (T) of tumors using the following formula: V=0.5236×(L×W×T). […]

In general, IC50 refers to the concentration that inhibits the measured activity by half. A high value points to weaker potency. As to `CC(C)c1cc(-c2nnc(O)n2-c2ccc3c(ccn3C)c2)c(O)cc1O` [Compound 226, 3-(2,4-di-hydroxy-5-isopropyl-phenyl)-4-(1-methyl-indol-5-yl)-5-hydroxy-[1,2,4] triazole], the “degradation of phosphorylated and total EGFR” value in data set [1] was “induced degradation phosphorylated and total EGFR more potently than 17AAG”. In the data set with V600E mutant B-raf, the “degradation of V600E mutant B-raf” value is “induced degradation”. Besides, the IC50 with MV 4-11 cells (FLT3-ITD) was under 4 nM. In addition, the “IC50 for cell survival (comparison)” value in the data set with P815 cells (c-Kit D814Y) is “lower IC50 for cell survival than 17AAG, 17DMAG or Gleevec”. Further, the “average bodyweight gain relative to the start of the study” value in data set [2] (day 60) is 2.7% (+/−1.1 SEM) and 2.7% (+/1.1 SEM). In data set [2] (nude mice, 8 doses, day 63), the “% T/C value” amounted to 17%.
